In patent US3947408A, “Pyrrolo-benzodiazepines, method of preparation and method of use” (American Cyanamid Company, priority 1974, dated 1976):
Structures can show the parent of a compound that is named as a salt.

What follows are compounds tested on clonic seizures caused by pentylenetetrazole (assay: Protection against clonic seizures caused by pentylenetetrazole in rats (oral)). Settings: Rattus norvegicus, rats (at least 5 per group), 2% starch vehicle, pentylenetetrazole 21 to 23 mg./kg. intravenously at estimated time of peak effect, protection of 50% of animals, read-out: MEDIAN EFFECTIVE ORAL DOSE ED50.
Type: in vivo
Experimental: The anti-anxiety properties of the compounds of the present invention have been established in a test which indicates anxiolytic activity by a measure of protection from convulsions resulting from the administration of pentylenetetrazole. Graded dose levels of the compounds of this invention are administered orally, in a 2% starch vehicle, to groups of at least 5 rats. At the estimated time of peak effect, the rats are treated intravenously with pentylenetetrazole at a dose of 21 to 23 mg./kg. of body weight. This dose is estimated to cause clonic seizures in 99% of unprotected rats. The effective dose of the test compound for protection of 50% of the animals is calculated by the method of D. H. Finney in Statistical Methods in Biological Assay, Second Edition, Hafner Publishing Co., New York, 1964, pp. 456- 457. Representative results are given in the table which follows in comparison with Librium (chlordiazepoxide) or Valium (diazepam), all of which were tested in exactly the same manner. It has been reported [R. T. Hill and D. H. Tedeschi, "Animal Testing and Screening Procedures in Evaluating Psychotropic Drugs" in An Introduction to Psychopharmacology, Eds. R. R. Rech and K. E. Moore, Raven Press, New York, pp. 237-288 (1971)] that there is a high degree of correlation between antagonism of pentylenetetrazole seizures in rats and antianxiety effects in higher warm-blooded animals.
Work on `CNC1=Nc2ccc(Cl)cc2C(c2ccccc2)=[N+]([O-])C1` [Librium (chlordiazepoxide), chlordiazepoxide, reference compound] yielded an ED50 of 2.5 mg/kg. Work on `CN1C(=O)C2CCCN2Cc2cc(Cl)ccc21` (racemic) [Racemic 7-chloro-1,2,3,5,10,11a-hexahydro-10-methyl-11H-pyrrolo[2,1-c][1,4]benzodiazepin-11-one hydrochloride] yielded an ED50 of 91 mg/kg. With `CN1C(=O)CN=C(c2ccccc2)c2cc(Cl)ccc21` [Valium (diazepam), diazepam, reference compound] the ED50 was 1.8 mg/kg. `Cc1ccc2c(c1)CN1CCC[C@H]1C(=O)N2C` [Dextro 7,10-dimethyl-1,2,3,5,10,11a-hexahydro-11H-pyrrolo[2,1-c][1,4]benzodiazepin-11-one hydrochloride] showed an ED50 of 32 mg/kg. For `CN1C(=O)C2CCCN2Cc2ccccc21` (racemic) [Racemic 1,2,3,5,10,11a-hexahydro-10-methyl-11H-pyrrolo[2,1-c][1,4]benzodiazepin-11-one hydrochloride], the ED50 was 66 mg/kg. `CN1C(=O)[C@@H]2CCCN2Cc2ccccc21` [Dextro 1,2,3,5,10,11a-hexahydro-10-methyl-11H-pyrrolo[2,1-c][1,4]-benzodiazepin-11-one hydrochloride] showed an ED50 of 15 mg/kg. With `CN1C(=O)[C@@H]2CCCN2Cc2cc(Cl)ccc21` [Dextro 7-chloro-1,2,3,5,10,11a-hexahydro-10-methyl-11H-pyrrolo[2,1-c][1,4]benzodiazepin-11-one hydrochloride] the ED50 was 80 mg/kg.
